In patent US8361964B2, “Growth hormone releasing factor (GRF) analogs and uses thereof” (Theratechnologies Inc., priority 2011, dated 2013):
Where a SMILES comes first, the peptide text is derived from it.

Tests used:
human GRF receptor = target: T1, human GRF receptor (Homo sapiens, UniProt Q02643); test: Alkaline phosphatase (AP) assay, GHRHr agonist activity; format: cell-based; conditions: BHK cells stably expressing human GRF receptor and alkaline phosphatase reporter gene; 24 hrs stimulation; read-out: EC50 (nM) as assessed by alkaline phosphatase (AP) induction
T1 construct: expressed in transfected cells; host or cells: baby hamster kidney (BHK) cells, stably transfected
T1 sequence (Q02643 23-423): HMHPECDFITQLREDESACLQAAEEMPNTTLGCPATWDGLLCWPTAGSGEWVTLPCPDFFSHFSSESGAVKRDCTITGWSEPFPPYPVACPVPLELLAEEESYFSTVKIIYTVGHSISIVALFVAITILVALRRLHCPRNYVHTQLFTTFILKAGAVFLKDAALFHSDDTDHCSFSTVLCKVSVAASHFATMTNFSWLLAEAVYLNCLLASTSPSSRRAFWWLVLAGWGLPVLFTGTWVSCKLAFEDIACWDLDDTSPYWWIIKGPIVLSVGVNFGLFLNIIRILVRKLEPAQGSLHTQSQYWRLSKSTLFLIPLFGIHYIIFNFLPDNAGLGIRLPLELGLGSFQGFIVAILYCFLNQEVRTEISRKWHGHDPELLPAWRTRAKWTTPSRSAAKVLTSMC
Description: The activity of representative GRF peptides was tested on baby hamster kidney (BHK) cells stably transfected to express the human GRF receptor and an alkaline phosphatase reporter gene. Cells were cultured 24 hours before stimulation, in 96-well plates, at a concentration of 0.5×10^5 cells/well. Before stimulation, cells were washed twice with DPBS and incubated 10-30 min in assay buffer (DMEM without phenol red supplemented with 20 mM HEPES and 1% heat inactivated fetal bovine serum (FBS). The dose response curve of the GRF peptides was done for 24 hrs with concentrations of peptides from 10^−5 M to 10^−11 M. Supernatant was collected and analysis of alkaline phosphatase levels was performed using the Alkaline Phosphatase detection kit from Applied Biosystems.
The in vitro activity of representative GRF analogs was tested on baby hamster kidney (BHK) cells expressing human GHRHr.

Growth Hormone secretion [1] = test: Growth Hormone secretion in female rats after subcutaneous GRF analog; format: in vivo; conditions: female Sprague-Dawley rats; 10 μg/rat subcutaneous; plasma 0-60 minutes
Method in brief: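 Female Sprague-Dawley rats (250–300 g), isoflurane-anaesthetised with carotid cannula, got GRF analog 10 μg/rat s.c. in 20 mM AcONa + 5% mannitol, pH 5. Blood was drawn at 0, 10, 20, 30, 45 and 60 min (4–8 rats per group per time point). Plasma GH was measured by rat/mouse GH ELISA on 20-fold diluted samples.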

Growth Hormone secretion [2] = test: Growth Hormone secretion in female mice after subcutaneous GRF analog; format: in vivo; conditions: female CD-1 mice; 10 μg/mouse subcutaneous; plasma 10 minutes after injection
Method in brief: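 Female CD-1 mice (20–25 g) got a subcutaneous dose of 10 μg/mouse GRF analog in 20 mM sodium acetate + 5% mannitol, pH 5. Plasma was taken by cardiac puncture 10 min after dosing into K3EDTA. GH was measured by rat/mouse GH ELISA on 20-fold diluted plasma.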

[3] = following intravenous injection in humans; cited from earlier work

| Compound | EC50 (human GRF receptor) [nM] | Mean AUC (GH Area Under the curve, GH concentration over time) (Growth Hormone secretion [1]) | Mean Cmax (ng/ml) of Growth Hormone secretion (Growth Hormone secretion [1]) [ng/mL] | GH levels 10 min (Growth Hormone secretion [2]) [ng/mL] | half-life [3] |
| --- | --- | --- | --- | --- | --- |
| CC[C@H](C)[C@H](NC(=O)[C@H](C)NC(=O)[C@H](CC(=O)O)NC(=O)[C@@H](C)NC(=O)[C@@H](N)Cc1ccc(O)cc1)C(=O)N[C@@H](Cc1ccccc1)C(=O)N[C@H](C(=O)N[C@@H](CC(=O)O)C(=O)N[C@@H](CO)C(=O)N[C@@H](Cc1ccc(O)cc1)C(=O)N[C@@H](CCCNC(=N)N)C(=O)N[C@@H](CCCCN)C(=O)N[C@H](C(=O)N[C@@H](CC(C)C)C(=O)N[C@@H](C)C(=O)N[C@@H](CCC(N)=O)C(=O)N[C@@H](CC(C)C)C(=O)N[C@@H](CCCCN)C(=O)N[C@@H](C)C(=O)N[C@@H](CCCNC(=N)N)C(=O)N[C@@H](CCC(N)=O)C(=O)N[C@@H](CC(=O)O)C(=O)N[C@H](C(=O)N[C@@H](CC(C)C)C(=O)N[C@@H](C)C(=O)N[C@@H](CCCNC(=N)N)C(=O)N[C@@H](C)C(=O)N[C@@H](C)C(=O)N[C@@H](CCCNC(=N)N)C(=O)N[C@@H](C)C(=O)N[C@@H](C)C(=O)N[C@@H](CCCNC(=N)N)C(N)=O)[C@@H](C)CC)C(C)C)[C@@H](C)O [SEQ ID NO: 28, Y-a-DAIFTDSYRKVLAQLKARQDILARAARAAR-NH2] (HELM PEPTIDE1{Y.[dA].D.A.I.F.T.D.S.Y.R.K.V.L.A.Q.L.K.A.R.Q.D.I.L.A.R.A.A.R.A.A.R.[am]}$$$$V2.0) | 0.11 | 17633 | 806.2 | 449.7 | – |
| CC/C=C/CC(=O)N[C@@H](Cc1ccc(O)cc1)C(=O)N[C@@H](C)C(=O)N[C@@H](CC(=O)O)C(=O)N[C@@H](C)C(=O)N[C@H](C(=O)N[C@@H](Cc1ccccc1)C(=O)N[C@H](C(=O)N[C@@H](CC(=O)O)C(=O)N[C@@H](CO)C(=O)N[C@@H](Cc1ccc(O)cc1)C(=O)N[C@@H](CCCNC(=N)N)C(=O)N[C@@H](CCCCN)C(=O)N[C@H](C(=O)N[C@@H](CC(C)C)C(=O)N[C@@H](C)C(=O)N[C@@H](CCC(N)=O)C(=O)N[C@@H](CC(C)C)C(=O)N[C@@H](CCCCN)C(=O)N[C@@H](C)C(=O)N[C@@H](CCCNC(=N)N)C(=O)N[C@@H](CCC(N)=O)C(=O)N[C@@H](CC(=O)O)C(=O)N[C@@H](CC(C)C)C(=O)N[C@@H](CC(C)C)C(=O)N[C@@H](C)C(=O)N[C@@H](CCCNC(=N)N)C(=O)N[C@@H](C)C(=O)N[C@@H](C)C(=O)N[C@@H](CCCNC(=N)N)C(=O)N[C@@H](C)C(=O)N[C@@H](C)C(=O)N[C@@H](CCCNC(=N)N)C(N)=O)C(C)C)[C@@H](C)O)[C@@H](C)CC [SEQ ID NO: 32, Trans-3-hexenoyl-YADAIFTDSYRKVLAQLKARQDLLARAARAAR-NH2] (HELM PEPTIDE1{[CC/C=C/CC(=O)[*:2]].Y.A.D.A.I.F.T.D.S.Y.R.K.V.L.A.Q.L.K.A.R.Q.D.L.L.A.R.A.A.R.A.A.R.[am]}$$$$V2.0) | 0.11 | 10500 | 514.8 | 401.6 | – |
| CC[C@H](C)[C@H](NC(=O)[C@H](C)NC(=O)[C@H](CC(=O)O)NC(=O)CNC(=O)[C@@H](N)Cc1ccc(O)cc1)C(=O)N[C@@H](Cc1ccccc1)C(=O)N[C@H](C(=O)N[C@@H](CC(=O)O)C(=O)N[C@@H](CO)C(=O)N[C@@H](Cc1ccc(O)cc1)C(=O)N[C@@H](CCCNC(=N)N)C(=O)N[C@@H](CCCCN)C(=O)N[C@H](C(=O)N[C@@H](CC(C)C)C(=O)N[C@@H](C)C(=O)N[C@@H](CCC(N)=O)C(=O)N[C@@H](CC(C)C)C(=O)N[C@@H](CCCCN)C(=O)N[C@@H](C)C(=O)N[C@@H](CCCNC(=N)N)C(=O)N[C@@H](CCC(N)=O)C(=O)N[C@@H](CC(=O)O)C(=O)N[C@H](C(=O)N[C@@H](CC(C)C)C(=O)N[C@@H](C)C(=O)N[C@@H](CCCNC(=N)N)C(=O)N[C@@H](C)C(=O)N[C@@H](C)C(=O)N[C@@H](CCCNC(=N)N)C(=O)N[C@@H](C)C(=O)N[C@@H](C)C(=O)N[C@@H](CCCNC(=N)N)C(=O)N[C@@H](CCO)C(N)=O)[C@@H](C)CC)C(C)C)[C@@H](C)O [SEQ ID NO: 36, YGDAIFTDSYRKVLAQLKARQDILARAARAAR-HoSer-NH2] (HELM PEPTIDE1{Y.G.D.A.I.F.T.D.S.Y.R.K.V.L.A.Q.L.K.A.R.Q.D.I.L.A.R.A.A.R.A.A.R.[O=C([C@H](CCO)N[*:1])[*:2]].[am]}$$$$V2.0) | 0.2 | 6211 | 373.5 | – | – |
| CC[C@H](C)[C@H](NC(=O)[C@H](C)NC(=O)[C@H](CC(=O)O)NC(=O)[C@@H](C)NC(=O)[C@@H](N)Cc1ccc(O)cc1)C(=O)N[C@@H](Cc1ccccc1)C(=O)N[C@H](C(=O)N[C@@H](CC(=O)O)C(=O)N[C@@H](CO)C(=O)N[C@@H](Cc1ccc(O)cc1)C(=O)N[C@@H](CCCNC(=N)N)C(=O)N[C@@H](CCCCN)C(=O)N[C@H](C(=O)N[C@@H](CC(C)C)C(=O)N[C@@H](C)C(=O)N[C@@H](CCC(N)=O)C(=O)N[C@@H](CC(C)C)C(=O)N[C@@H](CCCCN)C(=O)N[C@@H](C)C(=O)N[C@@H](CCCNC(=N)N)C(=O)N[C@@H](CCC(N)=O)C(=O)N[C@@H](CC(=O)O)C(=O)N[C@H](C(=O)N[C@@H](CC(C)C)C(=O)N[C@@H](C)C(=O)N[C@@H](CCCNC(=N)N)C(=O)N[C@@H](C)C(=O)N[C@@H](C)C(=O)N[C@@H](CCCNC(=N)N)C(=O)N[C@@H](C)C(=O)N[C@@H](C)C(=O)N[C@@H](CCCNC(=N)N)C(=O)N[C@@H](CCO)C(N)=O)[C@@H](C)CC)C(C)C)[C@@H](C)O [SEQ ID NO: 37, Y-a-DAIFTDSYRKVLAQLKARQDILARAARAAR-HoSer-NH2] (HELM PEPTIDE1{Y.[dA].D.A.I.F.T.D.S.Y.R.K.V.L.A.Q.L.K.A.R.Q.D.I.L.A.R.A.A.R.A.A.R.[O=C([C@H](CCO)N[*:1])[*:2]].[am]}$$$$V2.0) | 0.2 | 14757 | 594.6 | – | – |
| Ac-YADAIFTDSYRKVLAQLSARKLLQDILSR-NH2 [SEQ ID NO: 43, Ac-YADAIFTDSYRKVLAQLSARKLLQDILSR-NH2, reference compound] | 0.25 | 2128 | 83.6 | 277 | – |
| H-YGDAIFTDSYRKVLAQLKARQDILARAARAAR-NH2 [SEQ ID NO: 34, YGDAIFTDSYRKVLAQLKARQDILARAARAAR-NH2] | 0.2 | 11046 | 539.7 | – | – |
| H-YSDAIFTDSYRKVLAQLKARQDILARAARAAR-NH2 [SEQ ID NO: 33, YSDAIFTDSYRKVLAQLKARQDILARAARAAR-NH2] | 0.25 | 12467 | 499.0 | – | – |
| Tyr-Ala-Asp-Ala-Ile-Phe-Thr-Asn-Ser-Tyr-Arg-Lys-Val-Leu-Gly-Gln-Leu-Ser-Ala-Arg-Lys-Leu-Leu-Gln-Asp-Ile-Met-Ser-Arg [hGRF(1-29)] | – | – | – | – | approximately 12 min |
